In US20070071746A1, “C/CLP antagonists and methods of use thereof” (MEDIMMUNE, INC., priority 2005, published 2007):
“Also recorded” adds a separate entry of the source.

Experiments:
[1] = test system: peritoneal macrophages; assay: Cytokine induction assay with recombinant mYKL-40; assay type: cell-based, mouse; conditions: for secretion of IL-6 / secretion of KC: increasing amounts of recombinant mYKL-40
Method: Isolation of peritoneal macrophaaes: 4-6 week old Balb/c mice were injected i.p. with 1 ml of fluid thioglyclollate medium (Becton, Dickinson and Company, Sparks, Md.). 4 days later peritoneal macrophages were harvested by lavage (ice-cold PBS w/o Ca, Mg, 10 ml/mouse). Cells were washed with PBS twice and resuspended in 10% FBS/RPMI 1640 medium (Glutamax, 25 mM Hepes, 1×antibiotic-antimycotic (Invitrogen, Grand Island, N.Y.) at 2.5×10^6 cells/ml. Cells were plated in 96 well TC plates (100 μl/well). After overnight incubation at 37° C. nonadherent cells were removed by washing with serum free RPMI 1640. 100 μl/well of 10% FBS/RPMI 1640 were added and cells were cultured for 72 hr.
Cytokine Induction Assays: isolated peritoneal macrophages (described above) were washed with PBS, proteins and antibodies, concentrated supernatants, were added in 2% FBS/RPMI 1640, 100 μl/well. After 18 hr incubation supernatants were collected and cytokine concentrations were measured using mouse cytokine multiplex kit (Upstate, Lake Placid, N.Y.) on Luminex 100.

[2] = test system: Jurkat T cells; assay: Galectin-3 induced apoptosis in Jurkat T cells; assay type: cell-based, human
[3] = test system: Jurkat cells; assay: Galectin Induced Calcium Flux; assay type: cell-based, human; conditions: for calcium flux in Jurkat cells: galectin-3 40 μg/ml; for inhibition of galectin-3 induced calcium flux: 200 μg/ml, versus 100 μg/ml
Method: Galectin Induced Calcium Flux: Jurkat cells were labeled with Fluo-4AM and Fura-Red. galectin-3 (40 μg/ml) was added to the cells and Ca flux was analyzed as FL1/FL3. Analysis was performed for 5 minutes. For interaction analysis gal-3 (40μg/ml) is pre-incubated with huAMCase (100-200 μg/ml) or huChTrase (100-200 μg/ml) for 15 mins at RT prior to addition.

[4] = test system: memory T cells isolated from human blood; assay: Galectin-3 induced apoptosis in memory T cells; assay type: cell-based
[5] = target: T1, mouse AMCase / mouse galectin-4 (Mus musculus, UniProt Q91XA9); assay: C/CLP-Galectin Interaction ELISA; assay type: binding; conditions: data not shown
T1 construct: 6xHis (C); made in house; host or cells: HEK293 (FreeStyle 293), secreted and purified on nickel NTA
Method: (§1) C/CLP-Galectin Interaction ELISA: Galectin is immobilized on a microtiter plate in DPBS over night at 2-8° C. The plates are then washed with DPBS, 0.1% Tween 20 and blocked for 1 hour at room temperature. Serial dilutions of biotin labeled AMCase are added to each well and incubated for ˜1 hour at room temperature followed by HRP labeled streptavidin. Horseradish peroxydase activity is detected with TMB substrate (KPL, MD) and the reaction is quenched with 1% H2SO4. The absorbance is read at 450 nm.

[6] = target: T2, mouse AMCase / mouse galectin-3 (Mus musculus, UniProt Q91XA9); assay: C/CLP-Galectin Interaction ELISA; assay type: binding; conditions: data not shown
T2 construct: 6xHis (C); made in house; host or cells: HEK293 (FreeStyle 293), secreted and purified on nickel NTA
Method: as §1

[7] = 4-Mu-Chitotrioside assay, activity of recombinant AMCase proteins; assay type: biochemical; conditions: 4-Mu-Chitotrioside assay (soluble substrate)
Method: Activity Assays Used: Chitinase activity was assayed using two different but commonly used assays. One assay (4-Mu-Chitotrioside assay) utilized 4-methylumbelliferyl-β-D-N,N′,N″-triacetylchitotrise as a substrate (see, e.g., Hollak et al., 1994, J. Clin. Invest. 93: 1288-92). The other (chitin-azure assay) utilized chitin azure as a substrate (see, e.g., Thompson et al., (2001) Appl Environ Microbiol. 67:4001-4008).

[8] = target: galectin 7 (Homo sapiens, UniProt P47929); assay: C/CLP-Galectin Interaction ELISA; assay type: binding
Method: as §1

[9] = target: T3, galectin 2 (Homo sapiens, UniProt P05162); assay: C/CLP-Galectin Interaction ELISA; assay type: binding
T3 sequence (P05162 1-132): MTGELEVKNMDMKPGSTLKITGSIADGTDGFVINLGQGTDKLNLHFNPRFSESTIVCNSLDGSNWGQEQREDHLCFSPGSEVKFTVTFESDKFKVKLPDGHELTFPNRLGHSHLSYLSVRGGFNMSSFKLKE
Method: as §1

[10] = test system: human AMCase / human galectin 3; assay: C/CLP-Galectin Interaction ELISA; assay type: binding; conditions: listed as full length human AMCase
Method: as §1

[11] = target: T4, galectin 8 (Homo sapiens, UniProt O00214); assay: C/CLP-Galectin Interaction ELISA; assay type: binding
T4 sequence (O00214 1-317): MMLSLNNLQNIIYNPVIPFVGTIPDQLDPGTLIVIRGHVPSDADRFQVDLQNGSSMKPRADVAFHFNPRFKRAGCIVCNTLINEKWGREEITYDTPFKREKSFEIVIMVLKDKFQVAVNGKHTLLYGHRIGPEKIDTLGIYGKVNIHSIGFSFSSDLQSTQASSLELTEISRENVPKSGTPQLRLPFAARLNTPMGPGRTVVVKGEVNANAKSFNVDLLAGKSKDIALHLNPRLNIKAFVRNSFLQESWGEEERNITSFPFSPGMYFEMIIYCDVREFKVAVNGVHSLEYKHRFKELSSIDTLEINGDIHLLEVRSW
Method: as §1

[12] = target: galectin 1 (Homo sapiens, UniProt P09382); assay: C/CLP-Galectin Interaction ELISA; assay type: binding
Method: as §1

[13] = target: T5, human AMCase / human galectin 4 (Homo sapiens, UniProt P56470); assay: C/CLP-Galectin Interaction ELISA; assay type: binding
T5 construct: 6xHis (C); made in house; host or cells: HEK293 (AMCase)
T5 sequence (P56470 1-323): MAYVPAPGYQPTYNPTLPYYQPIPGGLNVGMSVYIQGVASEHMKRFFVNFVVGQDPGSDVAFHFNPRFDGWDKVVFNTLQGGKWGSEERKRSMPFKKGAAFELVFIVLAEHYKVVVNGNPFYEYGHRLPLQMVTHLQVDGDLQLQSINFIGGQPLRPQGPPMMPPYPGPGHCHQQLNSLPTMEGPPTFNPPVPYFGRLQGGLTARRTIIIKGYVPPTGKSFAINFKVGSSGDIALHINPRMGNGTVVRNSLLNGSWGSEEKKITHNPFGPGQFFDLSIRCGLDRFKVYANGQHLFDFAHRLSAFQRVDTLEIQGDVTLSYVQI
Method: as §1

[14] = listed as recombinant mouseYKL-40

T1 sequence (Q91XA9 22-473): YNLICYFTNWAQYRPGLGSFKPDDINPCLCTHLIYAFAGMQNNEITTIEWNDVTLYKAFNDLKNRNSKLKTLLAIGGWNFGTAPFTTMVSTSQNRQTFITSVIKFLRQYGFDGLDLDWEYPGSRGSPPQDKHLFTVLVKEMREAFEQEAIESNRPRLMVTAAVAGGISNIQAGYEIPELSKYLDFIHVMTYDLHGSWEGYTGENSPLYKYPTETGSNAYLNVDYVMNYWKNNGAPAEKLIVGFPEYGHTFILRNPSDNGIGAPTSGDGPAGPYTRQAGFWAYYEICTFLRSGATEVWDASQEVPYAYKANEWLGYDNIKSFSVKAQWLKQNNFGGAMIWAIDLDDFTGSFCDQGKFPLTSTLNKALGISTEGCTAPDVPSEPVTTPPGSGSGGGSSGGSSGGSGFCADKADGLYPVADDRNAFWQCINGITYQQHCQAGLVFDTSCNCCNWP
T2 sequence (Q91XA9 22-473): as above
Sequence of galectin 1 (P09382 2-135 limits assumed): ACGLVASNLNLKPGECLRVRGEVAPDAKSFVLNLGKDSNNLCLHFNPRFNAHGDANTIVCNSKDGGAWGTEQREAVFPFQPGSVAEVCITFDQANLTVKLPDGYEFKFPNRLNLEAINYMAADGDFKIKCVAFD
Sequence of galectin 7 (P47929 whole entry): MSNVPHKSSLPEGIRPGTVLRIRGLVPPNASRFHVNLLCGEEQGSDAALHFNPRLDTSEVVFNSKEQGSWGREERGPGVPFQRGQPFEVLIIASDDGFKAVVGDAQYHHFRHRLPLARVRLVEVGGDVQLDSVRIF

## mYKL-40: recombinant mouse YKL-40/BRP-39
[1]
  induction of IL-10: induced
  induction of RANTES: induced
  induction of TNF-α: induced
  secretion of IL-6: increase
  secretion of KC: increase
[1]; [14]
  secretion of IL-6: dose sensitive increase
  secretion of KC: dose sensitive increase

## rhuGal-3: recombinant human Galectin 3
[2]; 1 μg rhuGal-3
  apoptosis of Jurkat T cells: Little to no apoptosis
[2]; 5, 10 and 30 μg rhuGal-3
  apoptosis of Jurkat T cells: increased apoptosis
[2]; 5, 10 and 30 μg rhuGal-3, listed as Galectin-3
  apoptosis of Jurkat T cells: induce apoptosis
[3]; listed as Galectin
  calcium flux in Jurkat cells: results in calcium flux
[3]; listed as Galectin-3
  calcium flux in Jurkat cells: mediate calcium flux
[4]; galectin-3 alone
  apoptosis of memory T cells: induced apoptosis

## Cht: recombinant human chitotriosidase
[3]
  inhibition of galectin-3 mediated calcium flux: inhibited
  inhibition of galectin-3 induced calcium flux: not

## mouse AMCase: recombinant mouse acidic mammalian chitinase
[5]
  binding of mouse AMCase to mouse galectin-4: bind
[6]
  binding of mouse AMCase to mouse galectin-3: bind

## AMCase-TR: recombinant AMCase protein lacking the CBD
[7]
  activity of recombinant AMCase proteins: high activity
[7]; listed as truncated form
  activity of recombinant AMCase proteins: active

## D136A: AMCase full length protein containing the D136A mutation [Antibody D136A]
[7]
  activity of recombinant AMCase proteins: no activity; also recorded: completely abolished activity

## AMCase: recombinant human acidic mammalian chitinase
[3]
  inhibition of galectin-3 mediated calcium flux: inhibited
  inhibition of galectin-3 induced calcium flux: further inhibition
[4]; 10 μg galectin-3, 50 μg or more of AMCase
  inhibition of galectin-3 induced apoptosis of memory T cells: inhibited; also recorded: significant inhibition
[8]
  binding of AMCase to galectin 7: not
[9]
  binding of AMCase to galectin 2: not
[10]
  binding of AMCase to galectin 3: confirmed; also recorded: binds
[11]
  binding of AMCase to galectin 8: not
[12]
  binding of AMCase to galectin 1: not
[13]; listed as full length human AMCase
  binding of AMCase to galectin 4: confirmed; also recorded: binds

## OC[C@H]1O[C@@H](O[C@H]2[C@H](O)[C@@H](O)C(O)O[C@@H]2CO)[C@H](O)[C@@H](O)[C@H]1O (some centres unmarked) [lactose, reference compound]
[2]; addition of lactose
  effect on galectin-3 induced apoptosis of Jurkat T cells: abolished; also recorded: reduced the levels of apoptosis seen to nearly background levels
[13]
  inhibition of binding of Human AMCase to Galectin 4: inhibited

## full length AMCase: recombinant full length AMCase protein
[7]
  activity of recombinant AMCase proteins: high activity; also recorded: active
